Biological target: T1, LuxR01 (Shewanella baltica, UniProt A3CYS4)
T1 construct: gene Sbal_0102
T1 sequence (A3CYS4 1-175): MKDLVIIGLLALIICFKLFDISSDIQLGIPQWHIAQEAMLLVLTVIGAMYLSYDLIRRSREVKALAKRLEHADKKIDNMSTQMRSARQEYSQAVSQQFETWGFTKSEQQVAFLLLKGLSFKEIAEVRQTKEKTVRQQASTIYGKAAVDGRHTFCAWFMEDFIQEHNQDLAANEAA
Test: FLAG bead pull-down from ligand mixture, UHPLC-MS/MS
Format: binding
Conditions: mixture of C4-HSL, C6-HSL, PL, LL and PP, 1 uM, PBS, 4 °C, 1 h; empty-vector control

SMILES: O=C1N[C@@H](Cc2ccccc2)C(=O)N2CCC[C@@H]12 [PP, cyclo-(L-Pro-L-Phe)]
- FLAG bead pull-down from ligand mixture, UHPLC-MS/MS: PP was detected in LuxR01 and LuxR02 protein binding system

Reference: publication PMC6370745, “Positive Regulation of Spoilage Potential and Biofilm Formation in Shewanella baltica OS155 via Quorum Sensing System Composed of DKP and Orphan LuxRs” (Frontiers in Microbiology, 2019)
